The values below come from patent US8030284B2, “Treatment of eye disorders characterized by an elevated intraocular pressure by siRNAs” (Sylentis S.A.U., priority 2004, dated 2011).

In series [1] the test system is normotensive New Zealand rabbit. The experiment in a line: IOP reduction after topical application to the cornea. The format is in vivo, New Zealand White rabbit. As to conditions: topical 40 ul to cornea, once daily for four days; control = contralateral eye with vehicle alone; mean of maximum reduction ± SEM. The source says:
The New Zealand rabbit is the gold standard in experimental platforms designed to study IOP. It is easy to handle and it has a big eye, similar in size to the human organ. In addition, present equipment to measure IOP is not suited to use in animals with small eyes such as mice or rats. Finally, rabbits have an IOP (around 23 mm Hg) that can be brought down to up to 40% its value using local commercial hypotensive medication. Thus, although it is possible to generate rabbit glaucoma models (for example, surgically blocking episclerotic veins or artificially occluding the trabecular meshwork), we have used normotensive rabbits since, in our hands, the pharmacological decrease in IOP can be easily and reproducibly measured.
Normotensive New Zealand White rabbits (males, 2-3 kg) were used. The animals were kept in individual cages with free access to food and water. They were submitted to artificial 12 hours light/darkness cycles, to avoid uncontrolled circadian oscillations of IOP Animal handling and treatment were carried out in accordance with the European Communities Council Directive (86/609/EEC) and the statement of the Association for Research in Vision and Ophthalmology on the Use of Animals in Ophthalmic and Vision Research.
The drugs were typically administered by instilling a small volume (typically 40 μL) on the corneal surface. Contralateral eyes were treated with the vehicle alone and could be used as controls in each experiment […] there is a sympathy phenomenon with the other eye. Multiple experiments in the same animal should be abolished.
IOP measurements were done using a contact tonometer (TONOPEN XL, Mentor, Norwell, Mass.). The TonoPen tonometer is very convenient due to its reliability and small size. Measurements with this instrument were performed delicately applying the tonometer's sensor to the corneal surface. […] All measurements fell within this interval: the mean baseline value of intraocular pressure was 17.0±0.39 mm Hg (n=100). […] In order to avoid distress to the animal, rabbits were topically anesthetized (oxibuprocaine/tetracaine, 0.4%/1%, in a saline solution (1/4 v:v). The solution was applied (10 μl) to the cornea before each measurement of intraocular pressure was made. siRNA or saline was applied topically to the cornea in volumes of 40 μl.
The standard protocol for the siRNA application in rabbit was as follows. Doses of siRNA in saline solution (0.9% w/v) to a final volume of 40 ul, were applied to one eye each day during four consecutive days. The opposite eye was taken as a control and 40 ul of sterile saline (0.9% w/v) were instilled on it, at the same time points. The IOP was measured before each application and at 2 h, 4 h and 6 h following the instillation, during 10 days. Maximum responses were observed between second and third day. To compare the effect of siRNA with other hypotensive compounds, Xalatan (latanoprost 0.005%) and Trustop (Dorzolamide 2%) were assayed and IOP measured in the same conditions.
Those siRNAs selected by the in vitro assays were applied to the animal model, following the protocol previously described. To avoid the effect of IOP fluctuations due to circadian cycles, all the applications were performed at the same time. To determine the siRNA effect, intraocular pressures (IOPs) were measured as previously mentioned.
The data are summarized in table II where values represent the mean of the maximum percentage of IOP reduction after siRNA treatment once normalized and their standard deviations. The decrease in IOP was statistically significant for all the treated targets. […] The siRNAs used in these experiments correspond to the human targets given in FIGS. 2A-2R as follows: • AC2: rabbit sequence homologous to human SEQ. ID. 73 • AC4: rabbit sequence identical to human SEQ. ID. 5 • AC12: rabbit sequence identical to human SEQ. ID. 522 • ADRB1: rabbit sequence identical to human SEQ. ID. 105 • ADRB2: rabbit sequence homologous to human SEQ. ID. […]

In another series the test system is AC2. Nature of the series: siRNA interference in cell cultures, real time PCR of AC2 transcript. The class given is cell-based, rabbit. As to conditions: normalized to actin relative to cell control, mean ± SD. As for the experimental part:
To check the specificity of the siRNA interference different cell cultures that express the target genes were employed. The cells used for these experiments were: rabbit non-pigmented ciliary epithelium cells NPE, human ciliary epithelium cells OMDC, and human embryonic kidney cells HEK293. The cells are incubated with the corresponding siRNA duplexes, and analysis of the downregulation of expression of the target gene is carried out.
Several examples of techniques well known in the art are as follows: We can perform a single transfection of siRNA duplex using a cationic lipid, such as RNAiFect Transfection Reagent (Qiagen) and Lipofectamine 2000 Reagent (Invitrogen) and assay for silencing 24, 48 and 72 hours after transfection.
A typical transfection protocol can be performed as follows: For one well of a 6-well plate, we transfect using 100 nM as final concentration of siRNA. Following RNAiFect protocol, we seed, the day before transfection, 2-4×10^5 cells per well in 3 ml of an appropriate growth medium, containing DMEM, 10% serum, antibiotics and glutamine, and incubate cells under normal growth conditions (37° C. and 5% CO2). On the day of transfection, cells have to be at 30-50% confluence. We dilute 15 ul of 20 uM siRNA duplex (corresponding to 100 nM final concentration) in 85 ul of Buffer EC-R, to give a final volume of 100 ul, and mix by vortexing. For complex formation, we add 19 ul of RNAiFect Transfection Reagent to the diluted siRNA and mix by pipetting or vortexing. After incubating the samples for 10-15 minutes at room temperature to allow formation of transfection complexes, we add the complexes drop-wise onto the cells with 2.9 ml of fresh growth medium low in antibiotics. After swirling the plates to ensure uniform distribution of the transfection complexes, we incubate the cells under their normal growth conditions. The day after, the complexes are removed and fresh and complete growth medium is added. To monitor gene silencing, cells are collected at 24, 48 and 72 hours post-transfection. The Lipofectamine 2000 Reagent protocol is quite similar. The day before transfection, we seed 2-4×10^5 cells per well in 3 ml of an appropriate growth medium, containing DMEM, 10% serum, antibiotics and glutamine, and incubate cells under normal growth conditions (37° C. and 5% CO2). On the day of transfection, cells have to be at 30-50% confluence. We dilute 12.5 ul of 20 uM siRNA duplex (corresponding to 100 nM final concentration) in 250 ul of DMEM, to give a final volume of 262.5 ul, and mix. Also, 6 ul of Lipofectamine 2000 is diluted in 250 ul of DMEM and mixed. After a 5 minutes incubation at room temperature, the diluted oligomer and the diluted Lipofectamine are combined to allow complex formation during a 20 minutes incubation at room temperature. […]

With `CCN[C@H]1C[C@H](C)S(=O)(=O)c2sc(S(N)(=O)=O)cc21` [Dorzolamide, reference compound], the “IOP reduction (% of the control)” value in series [1] was 16.41 ± 2.38 % of the control. Take `CC(C)OC(=O)CCC/C=C\C[C@@H]1[C@@H](CC[C@@H](O)CCc2ccccc2)[C@H](O)C[C@@H]1O` [Latanoprost, latanoprost, reference compound]: the “IOP reduction (% of the control)” value in series [1] is reported as 25.46 ± 5.24 % of the control.

As for “AC2 siRNA2: siRNA against AC2: rabbit sequence identical to human SEQ. ID. 54 (CTTCCCTGAGGATCCTCAA; listed as DNA, chemistry not given here; listed as Homo sapiens)”, the “% of gene transcript level” value in the series on AC2 (24 h siRNA treatment) amounted to 37.97 ± 9.78%; in the series with AC2 (48 h siRNA treatment), 61.45 ± 9.62%. Turning to “AC2 siRNA3: siRNA against AC2: rabbit sequence identical to human SEQ. ID. 66 (CTTCACTTGGTTCACTGGA; listed as DNA, chemistry not given here; listed as Homo sapiens)”, the “% of gene transcript level” value with AC2 (24 h siRNA treatment) came to 35.30 ± 9.73%; in the series with AC2 (48 h siRNA treatment) it was 51.14 ± 16.49%. Regarding “ADRB1: siRNA against ADRB1: rabbit sequence identical to human SEQ. ID. 105 (CGACCCCAAGTGCTGCGAC; listed as DNA, chemistry not given here; listed as Homo sapiens)”, in series [1], the “IOP reduction (% of the control)” value was 28.04 ± 2.98 % of the control. In the case of “AGTR2: siRNA against AGTR2: rabbit sequence identical to human SEQ. ID. 774 (GCATCTTATATAGTTCCCC; listed as DNA, chemistry not given here; listed as Homo sapiens)”, in series [1], the “IOP reduction (% of the control)” value is 11.22 ± 1.53 % of the control.

“ATP1A1: siRNA against ATP1A1: rabbit sequence identical to human SEQ. ID. 1399 (CTGGAACTCTGACTCAGAA; listed as DNA, chemistry not given here; listed as Homo sapiens)”: the “IOP reduction (% of the control)” value in series [1] is 18.13 ± 1.39 % of the control. Same read-out and setting: the same measure for “ATP1B2: siRNA against ATP1B2: rabbit sequence identical to human SEQ. ID. 1820 (GTTCCACGTGAACTACACA; listed as DNA, chemistry not given here; listed as Homo sapiens)”: 16.32 ± 0.91 % of the control.
